Patent US20120232162A1, “USE OF LUTEIN CONTAINING COMPOSITIONS TO IMPROVE CERTAIN ASPECTS OF MEMORY” (priority 2009, published 2012)
“Also recorded” adds a separate entry of the source.

How the values were obtained:
mice [1] = assay: IntelliCage side discrimination paradigm (attention, associative learning and memory); format: in vivo; conditions: Lutein 9 mg/kg BW in feed, vs vehicle
Text: (§1) The cognitive performance of mice treated with lutein and/or zeaxanthin was compared with that of vehicle-treated, age-matched controls in the IntelliCage®, a system which enables automated monitoring of spontaneous and learning behavior of mice in a homecage-like environment (NewBehavior AG, Zurich, Switzerland, www.newbehavior.com; Galsworthy et al. 2005, Behav Brain Res 157: 211-217; Onishchenko et al. 2007, Toxicol Sci 97: 428-437, Mechan et al., 2009, J. Neurosci. Methods, 180:43-51). Individual mice are recognized by sensors within the IntelliCage corners reading a transponder (reference identification tag) which is implanted into the scruff of the mouse's neck.
Each IntelliCage® is essentially a large cage (37.5×55×20.5 cm), into which is placed a metal frame, comprising four recording (operant) chambers. The recording chambers fit into the corners of the cage, each covering a 15×15×21 cm right-angled triangular area of floor space. […]
This module was designed to test attention and associative memory. […] During this module the place errors (i.e. percentage of visits to incorrect corners) and side errors (i.e. percentage of nosepokes at the incorrect side of the correct corner) were recorded.

mice [2] = assay: IntelliCage associative memory paradigm (negative reinforcement, stress); format: in vivo
Text: as §1
(§2) Each IntelliCage® is essentially a large cage (37.5×55×20.5 cm), into which is placed a metal frame, comprising four recording (operant) chambers. The recording chambers fit into the corners of the cage, each covering a 15×15×21 cm right-angled triangular area of floor space. In-cage antennae enable automatic monitoring of each individual mouse's corner visits; photo-beams within each corner enable automated recording of individual nosepokes and licks of the water bottle spouts. Four triangular mouse shelters are placed in the center of the cage, above which is situated a food hopper, enabling ad libitum access to food.
Each recording chamber comprises: (1) a plastic ring (30 mm inner diameter) which serves as an entrance into the chamber and houses the circular antenna which registers corner visits; (2) a grid floor, which the mice sit on once they have entered the chamber; (3) two circular openings (13 mm diameter) which enable access to water bottle spouts; each opening is crossed by photo-beams which register nose-pokes; (4) two motorized doors, which allow (door open) or prohibit (door closed) access to the water bottle spouts; (5) two water bottles; (6) tubing, through which air-puffs can be delivered as aversive stimulation; (7) different colored light diodes, which can be used for conditioning experiments (Mechan et al., 2009 J Neurosci Methods 180:43-51). […]

mice [3] = assay: IntelliCage place learning paradigm (spatial learning and memory); format: in vivo; conditions: Lutein 9 mg/kg BW in feed, vs placebo-fed littermates
Text: as §1
as §2, with “food. […]” for “food.”

[4] = lutein alone; chronic treatment (4 months); WO 2006/116755; cited from earlier work
[5] = tested on: primary culture of neurons; assay: glutamate neurotoxicity paradigm in primary neuron culture (neurofilament network / neurite length); format: cell-based; conditions: lutein pre-treatment from day 5, 3 concentrations, n=6; 250 μM glutamate for 6 hours on day 12; glutamate control set as 100%; p<0.05 and <0.01
Text: Glutamate is one of the principal excitatory amino acid in the central nervous system, and as such plays a crucial role in normal physiology. Perturbations in normal regulatory mechanisms of glutamate functions may lead to excessive, neurotoxic activation of glutamate receptors in the brain, which may be detrimental to learning and memory performance in the normal and aging brain. Using a primary culture of neurons, these conditions can be reproduced by glutamate intoxication. Impact on cultured neurons was indicated by morphological changes in the neurofilament cytoskeleton network of the neurons.
Neuroprotective effects of single compounds and combinations of compounds were evaluated by analyzing network density using labelling with an anti-neurofilament antibody (heavy chain 200 kD) specific to mature neuron neurites.
Riluzole (a pharmacological neuroprotective agent) and MK801 were used as inhibitory compounds counteracting neurotoxic effects of glutamate resulting in outgrowth of neurites. Inhibitory MK801 (complete blockage of NMDA-type glutamate receptors) was powerful and led to 100% recovery after intoxication.
Neuroprotective functions of lutein were tested using the schedule shown below:
On day 5, the culture medium was replaced by control culture medium or medium containing lutein (3 concentrations) within physiological range, n=6 per concentration). […]

[6] = second set of experiments, younger animals, intermediate lutein dose (of 8, 16 and 30 mg/kg/d), vs control group

SMILES: CC1=C[C@H](O)CC(C)(C)[C@H]1/C=C/C(C)=C/C=C/C(C)=C/C=C/C=C(C)/C=C/C=C(C)/C=C/C1=C(C)C[C@@H](O)CC1(C)C [lutein]
- side error rate (percentage of nosepokes at the incorrect side of the correct corner) (mice [1]; active phase): significantly lower
- place error rate (percentage of visits to incorrect corners) (mice [1]; active phase (first 12 h)): higher level of attention and an improved memory performance; also recorded: significantly lower
- learning and memorizing the correct place to access water under stressful conditions (air puff punishment) (mice [2]; Lutein 9 mg/kg BW in feed, vs vehicle-treated littermates): significantly better
- performance in the associative memory task, place errors (mice [2]; [6]): significant improvement
- performance in the associative memory task, side errors (mice [2]; [6]): significant improvement
- using spatial cues to find and memorize the location of water (mice [3]): significant improvement; also recorded: significantly better
- Verbal Fluency test [4]: significant improvement
- other cognitive- or mood assessment-tests [4]: did not result in improvements
- protection of neurons from excitotoxic glutamate neuro-toxicity (neurite length) [5]: significantly protected
